Laboratory results published in article PMC8854621, “Functionally selective signaling and broad metabolic benefits by novel insulin receptor partial agonists” (Nature Communications, 2022).
Like-named read-outs stand apart in the source and are kept apart here.

Assays:
[1] = test system: diabetic Yucatan minipigs; experiment: Glucose lowering after s.c. bolus in type 1 diabetic Yucatan minipigs (PD); format: in vivo, minipig; settings: individual animal
Description: Data is presented as mean ± SEM, n = 6 animals per dose group. […] Source data are provided as a Source Data file.
IRPAs were characterized in a Type 1 diabetic Yucatan minipig model. Briefly, male Yucatan minipigs, from Sinclair, were rendered Type 1 diabetic by Alloxan injections following a proprietary protocol developed by Sinclair Research Center (Auxvasse, MO). […] Minipigs used in these studies ranged from 10 months to 3 years old, had plasma glucose levels of approximately 300–400 mg/dL and were instrumented with two Jugular vein vascular access ports (VAP).
IRPAs were administered to diabetic minipigs by subcutaneous injection. […] After dosing, sampling continued for 18 h.

SAOS2/B10 cells = experiment: Cellular proliferation, EdU incorporation (Click-it EdU); format: cell-based
Description: 3. […]
Ethynyl-2′-deoxyuridine; ThermoFisher Scientific) assay. […]

“Tresiba: insulin Degludec from Novo Nordisk, a lipidated insulin” was tested, and the ΔGlucose ([1]; 2 h post s.c. dose, replicate 1) was -38 mg/dL, the ΔGlucose ([1]; 2 h post s.c. dose, replicate 2) was -21 mg/dL and the ΔGlucose ([1]; 2 h post s.c. dose, replicate 3) was 5 mg/dL. It also gave a ΔGlucose ([1]; 2 h post s.c. dose, replicate 4) of 79 mg/dL, a ΔGlucose ([1]; 2 h post s.c. dose, replicate 5) of 69 mg/dL and a ΔGlucose ([1]; 2 h post s.c. dose, replicate 6) of -28 mg/dL. For the same substance, the ΔGlucose ([1]; 2 h post s.c. dose, replicate 7) was 35 mg/dL, the ΔGlucose ([1]; 2 h post s.c. dose, replicate 8) was -20 mg/dL and the ΔGlucose ([1]; 2 h post s.c. dose, replicate 9) was 40 mg/dL. The ΔGlucose ([1]; 2 h post s.c. dose, replicate 10) was 8 mg/dL, the ΔGlucose ([1]; 2 h post s.c. dose, replicate 11) was -118 mg/dL and the ΔGlucose ([1]; 2 h post s.c. dose, replicate 12) was 93 mg/dL. The ΔGlucose ([1]; 2 h post s.c. dose, replicate 13) was -13 mg/dL, the ΔGlucose ([1]; 2 h post s.c. dose, replicate 14) was 18 mg/dL and the ΔGlucose ([1]; 2 h post s.c. dose, replicate 15) was -36 mg/dL. The ΔGlucose ([1]; 2 h post s.c. dose, replicate 16) was 58 mg/dL, the ΔGlucose ([1]; 2 h post s.c. dose, replicate 17) was -126 mg/dL and the ΔGlucose ([1]; 2 h post s.c. dose, replicate 18) was -12 mg/dL. For the same substance, the ΔGlucose ([1]; 2 h post s.c. dose, replicate 19) was -60 mg/dL, the ΔGlucose ([1]; 3 h post s.c. dose, replicate 1) was -67 mg/dL and the ΔGlucose ([1]; 3 h post s.c. dose, replicate 2) was -79 mg/dL. For the same substance, the ΔGlucose ([1]; 3 h post s.c. dose, replicate 3) was -1 mg/dL, the ΔGlucose ([1]; 3 h post s.c. dose, replicate 4) was 32 mg/dL and the ΔGlucose ([1]; 3 h post s.c. dose, replicate 5) was 97 mg/dL. The ΔGlucose ([1]; 3 h post s.c. dose, replicate 6) was -58 mg/dL, the ΔGlucose ([1]; 3 h post s.c. dose, replicate 7) was 20 mg/dL and the ΔGlucose ([1]; 3 h post s.c. dose, replicate 8) was -73 mg/dL. The ΔGlucose ([1]; 3 h post s.c. dose, replicate 9) was 97 mg/dL, the ΔGlucose ([1]; 3 h post s.c. dose, replicate 10) was -61 mg/dL and the ΔGlucose ([1]; 3 h post s.c. dose, replicate 11) was -233 mg/dL. The ΔGlucose ([1]; 3 h post s.c. dose, replicate 12) was -9 mg/dL, the ΔGlucose ([1]; 3 h post s.c. dose, replicate 13) was -76 mg/dL and the ΔGlucose ([1]; 3 h post s.c. dose, replicate 14) was -2 mg/dL. The ΔGlucose ([1]; 3 h post s.c. dose, replicate 15) was -89 mg/dL, the ΔGlucose ([1]; 3 h post s.c. dose, replicate 16) was 57 mg/dL and the ΔGlucose ([1]; 3 h post s.c. dose, replicate 17) was -188 mg/dL. For the same substance, the ΔGlucose ([1]; 3 h post s.c. dose, replicate 18) was -49 mg/dL, the ΔGlucose ([1]; 3 h post s.c. dose, replicate 19) was -86 mg/dL and the ΔGlucose ([1]; 4 h post s.c. dose, replicate 1) was -114 mg/dL. The ΔGlucose ([1]; 4 h post s.c. dose, replicate 2) was -145 mg/dL, the ΔGlucose ([1]; 4 h post s.c. dose, replicate 3) was -76 mg/dL and the ΔGlucose ([1]; 4 h post s.c. dose, replicate 4) was 21 mg/dL. For the same substance, the ΔGlucose ([1]; 4 h post s.c. dose, replicate 5) was 89 mg/dL, the ΔGlucose ([1]; 4 h post s.c. dose, replicate 6) was -90 mg/dL and the ΔGlucose ([1]; 4 h post s.c. dose, replicate 7) was -30 mg/dL. For the same substance, the ΔGlucose ([1]; 4 h post s.c. dose, replicate 8) was -110 mg/dL, the ΔGlucose ([1]; 4 h post s.c. dose, replicate 9) was 88 mg/dL and the ΔGlucose ([1]; 4 h post s.c. dose, replicate 10) was -83 mg/dL. The ΔGlucose ([1]; 4 h post s.c. dose, replicate 11) was -283 mg/dL, the ΔGlucose ([1]; 4 h post s.c. dose, replicate 12) was -105 mg/dL and the ΔGlucose ([1]; 4 h post s.c. dose, replicate 13) was -142 mg/dL. For the same substance, the ΔGlucose ([1]; 4 h post s.c. dose, replicate 14) was -49 mg/dL, the ΔGlucose ([1]; 4 h post s.c. dose, replicate 15) was -147 mg/dL and the ΔGlucose ([1]; 4 h post s.c. dose, replicate 16) was 24 mg/dL. It also gave a ΔGlucose ([1]; 4 h post s.c. dose, replicate 17) of -217 mg/dL, a ΔGlucose ([1]; 4 h post s.c. dose, replicate 19) of -118 mg/dL and a ΔGlucose ([1]; 5 h post s.c. dose, replicate 1) of -180 mg/dL. It also gave a ΔGlucose ([1]; 5 h post s.c. dose, replicate 2) of -224 mg/dL, a ΔGlucose ([1]; 5 h post s.c. dose, replicate 3) of -181 mg/dL and a ΔGlucose ([1]; 5 h post s.c. dose, replicate 4) of 9 mg/dL. For the same substance, the ΔGlucose ([1]; 5 h post s.c. dose, replicate 5) was 29 mg/dL, the ΔGlucose ([1]; 5 h post s.c. dose, replicate 6) was -129 mg/dL and the ΔGlucose ([1]; 5 h post s.c. dose, replicate 7) was -47 mg/dL. For the same substance, the ΔGlucose ([1]; 5 h post s.c. dose, replicate 8) was -151 mg/dL, the ΔGlucose ([1]; […] post s.c. dose, replicate 4) was 27 mg/dL and the ΔGlucose ([1]; […] post s.c. dose, replicate 12) was -48 mg/dL.

IGF-1: insulin-like growth factor 1 showed an EC50 (SAOS2/B10 cells; geometric mean of all independent titrations, EdU incorporation, four-parameter fit, read-out: Cell Proliferation Assay Total Ave EC50) of 149 pM, an EC50 (SAOS2/B10 cells; titration 2, read-out: Cell Proliferation Assay EC50-2) of 397 pM and an EC50 (SAOS2/B10 cells; titration 3, read-out: Cell Proliferation Assay EC50-3) of 154 pM. The EC50 (SAOS2/B10 cells; titration 4, read-out: Cell Proliferation Assay EC50-4) was 81.9 pM, the EC50 (SAOS2/B10 cells; titration 5, read-out: Cell Proliferation Assay EC50-5) was 103 pM and the EC50 (SAOS2/B10 cells; titration 6, read-out: Cell Proliferation Assay EC50-6) was 68.8 pM. The EC50 (SAOS2/B10 cells; titration 7, read-out: Cell Proliferation Assay EC50-7) was 56.8 pM, the EC50 (SAOS2/B10 cells; titration 8, read-out: Cell Proliferation Assay EC50-8) was 842 pM and the EC50 (SAOS2/B10 cells; titration 9, read-out: Cell Proliferation Assay EC50-9) was 438 pM. For the same substance, the EC50 (SAOS2/B10 cells; titration 10, read-out: Cell Proliferation Assay EC50-10) was 153 pM.
